Experimental data published in US9637724B2, “Selective binding of biological targets to solid phase ureides” (AGENCY FOR SCIENCE, TECHNOLOGY AND RESEARCH, priority 2012, dated 2017).

How the values were obtained:
[1] = Allantoin plus ethacridine treatment of IgG cell culture harvest, then TREN / T-butyl column; settings: 1% allantoin with 0.01% ethacridine
Experimental: Cell-containing mammalian cell culture harvest containing a monoclonal IgG was treated by allantoin affinity with 1% allantoin in combination with 0.01% ethacridine. The sample, at a pH of about 7.2 and a conductivity of about 13.5 mS, these conditions corresponding with so-called physiological conditions, was passed over a column packed chromatography media including equal amounts of the metal affinity ligand TREN (BioWorks TREN hi-sub) and a hydrophobic ligands (Macroprep T-butyl). Antibody recovery following the previous steps was 99%. DNA was reduced by 3.5 logs, and virus was reduced by 4-5 logs. In addition, the treated sample was sparking clear, with a turbidity of about 2.0 NTU, indicating near-total removal of particulates.
The form or example 15 was followed except increasing the amount of allantoin over the course of a series of experiments, including 2%, 4%, and 8%. Antibody recovery decreased in a roughly linear fashion in inverse proportion to the amount of allantoin. Whereas recovery at 1% (example 15) was 99%, recovery at 8% was about 87%.
IgG processed as described in examples 15 and 16 was analyzed by size exclusion chromatography. […] Where aggregate content following example 15 was about 5%, it was reduced to about 1.3% at 8% allantoin. Aggregate content of membrane clarified cell harvest lacking allantoin was about 19%. […]

murine leukemia virus [2] = assay: Enhancement of virus inactivation at low pH, virus infectivity; settings: pH 4 plus 10% allantoin
Experimental: A cell culture supernatant containing about 10^10 particles of murine leukemia virus per mL was split into 10 aliquots. Half of the aliquots were treated by reduction of pH to 4 for the purpose of inactivating the virus. The other half was treated by the same reduction or pH plus the addition of 10% allantoin. Aliquots representing treatment at 1, 5, 10, 15, and 60 minutes were evaluated for virus infectivity. At 1 minute, inactivation absent allantoin was 1.2 logs versus 2.4 logs with allantoin. At 5 minutes, inactivation absent allantoin was 3.2 logs versus 4.5 logs with allantoin. At 10 minutes, inactivation absent allantoin was 4.3 logs versus 5.4 logs with allantoin. At 15 minutes, inactivation absent allantoin was 5.1 logs versus 5.6 logs with allantoin. At 60 minutes, inactivation absent allantoin was 5.4 logs versus 5.6 logs with allantoin. Since the sensitivity of the infectivity assay is about 5.5 logs, it is likely that the allantoin inclusion increases the level of inactivation at all time points, in addition to accelerating inactivation. It will be apparent to the person of skill in the art that combination of allantoin with other virus inactivation methods will likely have a similar enhancing effect.

[3] = Cell culture harvest treated with allantoin and ethacridine, then iminodiacetic acid / TREN / butyl particle assembly; settings: 1% allantoin, 0.025% ethacridine
Experimental: 1 L of cell culture harvest was treated by addition of 1% allantoin and 0.025% ethacridine and incubated stirring for 15 minutes, after which the cells and other particulates were removed by centrifugation. The supernatant was passed through an assembly containing equal proportions of styrene divinylbenzene particles substituted with iminodiacetic acid, agarose particles substituted with TREN, and acrylate particles substituted with butyl residues, with a combined volume of 50 mL, dimensions of 2.6×10 cm, and a flow rate of 25 mL/min. Initial aggregate content of greater than 12% was reduced to less than 0.1%. Excess ethacridine was removed. Host protein contamination was reduced 60%. DNA, as measured by qPCR was reduced by 6 logs. Antibody recovery was 99%.

Bacteriophage M13 = assay: Co-precipitation of bacteriophage M13 from phage cell culture supernatant with allantoin
Experimental: Phage cell culture supernatant was co-precipitated by addition of allantoin at a weight to volume ratio of 7%. pH was about 7.0. Conductivity was 20 mS. The virus was recovered by dissolving the allantoin in 50 mM Hepes, 150 mM NaCl, pH 7.0. Phage recovery was about 70%. Greater than 99% of proteins and small molecule contaminants were eliminated with the supernatant.
Example 1 was repeated at pH values of 5.0, 6.0, and 8.0% allantoin.
Example 1 was repeated at NaCl concentrations corresponding to conductivity values of 40, 60, 80, and 100 mS/cm. These salt concentrations correspond with about 400, 600, 800, and 1000 mM NaCl. […] Optimal co-precipitation occurred at 400 mM NaCl. This was interpreted to reflect suppression of mutual electrostatic repulsion among viral particles with the result of supporting higher packing density of the particles on the ureide surface.
Example 1 was repeated with 3%, 5%, and 10% allantoin. Co-precipitation efficiency, as judged by removal from supernatant, was directly correlated with allantoin concentration. Recovery increased from about 31% to 57% to 91% respectively.
Phage cell culture supernatant was precipitated with 7% allantoin at 400 mM NaCl, pH 6.0. The majority of proteins and small molecule contaminants were eliminated with the supernatant. Recovery was estimated to be in excess of 90%. […]

[4] = cited from earlier work
minute virus of mice = assay: Co-precipitation of minute virus of mice, infectivity testing of supernatant; settings: 10% allantoin, physiological conditions, 10^10 particles per mL
Excerpt: A viral culture containing 10^10 particles per mL of minute virus of mice was coprecipitated under physiological conditions by addition of allantoin in an amount of 10%. Infectivity testing of the supernatant documented removal of 99.9% of the virus.

endotoxin [5] = assay: Comparison of allantoin and uric acid for removal of endotoxin from human IgG solution; settings: 1, 2 and 4% (w/v), 13,000 EU/ml, 6.7 mg/mL human IgG, 15 minutes
Experimental: Endotoxin was added to a 6.7 mg/mL solution of human IgG in 5 mM Hepes, 100 mM NaCl, pH 7.0 to a final concentration of 13,000 EU/ml. 1, 2 and 4% (w/v) of either allantoin or uric acid was added to aliquots of this mixture and allowed to mix for 15 minutes at room temperature. As a control, equal amounts of potato starch were added to a separate series. Finally, the reaction mixtures were clarified by centrifugation. Protein and endotoxin concentrations were measured to calculate antibody recovery and endotoxin removal. There was no reduction in endotoxin with the addition of starch. Uric acid produced a 4-fold reduction at all concentrations. Allantoin reduced endotoxin from 5-10-fold across the experiments (low to high). Antibody recovery was greater than 90% throughout. Besides the poorer performance of uric acid, the fact that results were unchanged as a function of the amount of uric acid are puzzling, and highlight allantoin as being a preferable ureide to begin with.

murine leukemia virus [6] = assay: Co-precipitation of murine leukemia virus, infectivity testing of supernatant; settings: 10% allantoin, physiological conditions, 10^10 particles per mL
Excerpt: A viral culture containing 10^10 particles per mL of murine leukemia virus was coprecipitated under physiological conditions by addition of allantoin in an amount of 10%. Infectivity testing of the supernatant documented removal of 99.9% of the virus.

[7] = test system: purified DNA from salmon sperm; assay: Treatment of purified DNA with allantoin; settings: antibody-containing protein preparations, previous examples
Experimental: A 1 mg/mL preparation of purified DNA from salmon sperm was treated with 5% allantoin. More than 95% of the DNA remained soluble in the supernatant. This highlights the utility of separating virus or endotoxin contaminants from DNA preparations, such as plasmid preparations, which is otherwise extremely difficult because all three bind strongly to electropositive surfaces such as anion exchangers. […] The apparent discrepancy appears to be resolved by allantoin having little or no inherent affinity for DNA, but a very high affinity for DNA associated with other molecule, especially including DNA-compaction proteins or other compound associations of DNA with chromosomal substructures particularly including nucleosomes and their prokaryotic analogues. This further highlights the point that applications to purification of polynucleotides will likely benefit in particular from being conducted at high salt concentrations and/or the presence of organic modulators that discourage nonspecific formation of polynucleotide complexes with contaminants.

endotoxin [8] = assay: Endotoxin removal during purification of a DNA plasmid from E. coli lysate; settings: 10% allantoin, 15 minutes
Experimental: Powdered allantoin was added to a final concentration of 10% in a filtered E. coli lysate containing a DNA plasmid. The mixture was stirred for 15 minutes then the solid allantoin was removed by microfiltration. 96.7% of the endotoxin was removed with the allantoin. 80% of the DNA plasmid was recovered in the filtrate. […] From the results given in the previous Examples, it will be apparent to the person of ordinary skill, that in the case of plasmids produced in mammalian cells, allantoin treatment will offer the additional benefit of virus removal.

endotoxin [9] = assay: Antibody recovery and endotoxin reduction from an IgG-endotoxin mixture
Experimental: Endotoxin was added to 1 mg/mL human IgG in 5 mM HEPES 100 mM NaCl pH 7.0 to 22,000 EU/ml. 2% (w/v) allantoin were added to aliquots of this mixture and allowed to mix for 15 minutes at room temperature. The suspension was clarified by centrifugation. Protein and endotoxin concentrations were measured to calculate antibody recovery and endotoxin removal. 2% (w/v) allantoin reduced endotoxin twofold. Antibody recovery was unaffected by the amount of allantoin. In a subsequent series of experiments, the amount of allantoin was increased in increments, up to 10%. Antibody recovery diminished gradually to about 93% at 10% allantoin, while endotoxin removal efficiency increased to about 99%. These experiments illustrate that the use of excessive amounts of allantoin can result in a loss of some proteins. In such cases, the person of skill in the art can make an informed decision as to the most productive balance of endotoxin removal versus protein recovery, and adjust the availability of the solid phase ureide accordingly. Additional experiments with proteins ranging in size from about 12 kDa to 1 MDa indicated a definite trend whereby the loss of protein increases with increasing protein size.

Attenuated Dengue virus = assay: Co-precipitation of attenuated Dengue virus with allantoin; settings: 7% allantoin, 600 mM NaCl, pH 6.0
Experimental: Attenuated Dengue virus was combined with 7% allantoin at 600 mM NaCl, pH 6.0. The supernatant was removed. The virus was recovered by dissolving the allantoin in 50 mM Hepes, pH 7.0. Recovery was estimated by immunoassay to be 70-80%.

endotoxin [10] = assay: Endotoxin reduction from an ovalbumin solution; settings: start about 50 EU/mL
Experimental: A sample of ovalbumin in 50 mM phosphate, 100 mM NaCl, pH 7.2, contaminated with about 50 EU/mL of endotoxin, was saturated with 3% allantoin, incubated for 15 minutes, following which the precipitate was removed by membrane filtration. Endotoxin content of the supernatant was reduced by more than 95%, to less than 2 EU per mL. The experiment was repeated with 10% allantoin.

## NC(=O)NC1NC(=O)NC1=O (stereo not drawn) [allantoin]
[1]
  DNA reduced by: 3.5 logs
  virus reduced by: 4-5 logs
Murine leukemia virus [2]; 1 minute
  virus inactivation: 2.4 logs
Murine leukemia virus [2]; 5 minutes
  virus inactivation: 4.5 logs
Murine leukemia virus [2]; 10 minutes
  virus inactivation: 5.4 logs
Murine leukemia virus [2]; 15 minutes
  virus inactivation: 5.6 logs
Murine leukemia virus [2]; 60 minutes
  virus inactivation: 5.6 logs
[3]
  DNA as measured by qPCR reduced by: 6 logs
  Host protein contamination reduced: 60%
Bacteriophage M13; 5% allantoin, pH about 7.0, about 15 mS
  virus eliminated in the precipitate: About 60%
Bacteriophage M13; 7% allantoin, pH about 7.0, 20 mS
  proteins and small molecule contaminants eliminated with the supernatant: Greater than 99%
[4]; aqueous solutions
  saturation concentration: about 36 mM
Minute virus of mice
  removal of the virus (infectivity testing of supernatant): 99.9%
Endotoxin [5]
  reduction in endotoxin: 5-10 fold
Murine leukemia virus [6]
  removal of the virus (infectivity testing of supernatant): 99.9%
[7]
  DNA levels reduced by: 98 to 99%
Endotoxin [8]
  endotoxin removed with the allantoin: 96.7%
Endotoxin [9]; 2% (w/v) allantoin, 22,000 EU/ml, 1 mg/mL human IgG, 15 minutes
  endotoxin reduction: twofold
Endotoxin [9]; 10% allantoin
  endotoxin removal efficiency: about 99%
Attenuated Dengue virus
  Host protein contamination reduced by: 99.3%
Endotoxin [10]; 3% allantoin, 15 minutes
  Endotoxin content of the supernatant reduced by: more than 95%
Endotoxin [10]; 10% allantoin
  Endotoxin reduced by: more than 99.5%

## O=C1CNC(=O)N1 [hydantoin]
[4]; times more soluble than allantoin
  solubility relative to allantoin: roughly 10 times

## O=c1[nH]c(=O)c2[nH]c(=O)[nH]c2[nH]1 [uric acid]
Endotoxin [5]
  reduction in endotoxin: 4 fold
